In patent US20110280940A1, “Di-Vanilloyl And Tri-Vanilloyl Derivatives For Use In Anti-Cancer Therapy” (priority 2008, published 2011):
Read-outs that look alike come from different tables or passages of the source.

Legend:
VM48 melanoma cells = assay: MTT colorimetric assay, overall cell growth, VM48; format: cell-based, human; conditions: MTT, 72 hours of incubation, read-out: In Vitro IC50 Growth Inhibitory Values, VM48
[1] = system: OE33 oesophageal cancer cells; assay: MTT colorimetric assay, overall cell growth, OE33; format: cell-based, human; conditions: read-out: In Vitro IC50 Growth Inhibitory Values, OE33
Description: (§1) The amount of formazan obtained at the end of the experiment, measured by means of a spectrophotometer, is directly proportional to the number of living cells. Optical density determination thus enabled a quantitative measurement of the effect of the investigated compounds as compared to the control condition (untreated cells) and/or to other reference compounds. Eleven human cancer cell lines and one mouse melanoma cell-line (B16F10) described in Table 2 were used in the following MTT tests. These cancer cell lines cover seven histological cancer types including prostate (PC3), glioma (Hs683, T98G, U373, melanoma (VM21, VM28), non-small-cell-lung (A549), breast (MCF-7), colon (LoVo) and oesophageal (OE21, OE33) cancers. […] Each cell line was seeded in its appropriate culture medium. The detailed experimental procedure was the following: after a 24-hour period of incubation at 37° C., the culture medium was replaced by 100 μl of fresh medium in which the tested compound was previously dissolved, at the following molar concentrations: 10^-8 […] and 10^-4 M. Each experiment was performed in sestuplicates (6 times). After 72 hours of incubation at 37° C. with (experimental conditions) or without (control condition) the compound to be tested, the medium was replaced by 100 μl MTT dissolved in RPMI (1640 without phenol red) at a concentration of 0.5 or 1 mg/ml. The micro-wells were subsequently incubated during 3 hours and a half at 37° C. and centrifuged at 1300 rpm during 10 minutes. MTT was removed and formazan crystals formed were dissolved in 100 μl DMSO. The micro-wells were shaken for 5 minutes and read on a spectrophotometer at wavelengths of 570 nm (maximal formazan absorbance). For each experimental condition, the mean optical density was calculated, allowing the determination of the percentage of remaining living cells in comparison to the control. […] The origin of all the cell lines we used, along with their biological characteristics, and the validation procedures of the MTT colorimetric assay as employed here are fully detailed in Van Quaquebeke et al., 2005, J Med Chem 48:849-856; […]

LoVo colon cancer cells = assay: MTT colorimetric assay, overall cell growth, LoVo; format: cell-based, human; conditions: 72 hours of incubation, read-out: In Vitro IC50 Growth Inhibitory Values, LoVo
Description: as §1

[2] = system: B16F10 melanoma cell-line; assay: MTT colorimetric assay, overall cell growth, B16F10; format: cell-based, mouse; conditions: read-out: In Vitro IC50 Growth Inhibitory Values, B16F10
Description: as §1

Hs683 glioma cells = assay: MTT colorimetric assay, overall cell growth, Hs683; format: cell-based, human; conditions: read-out: In Vitro IC50 Growth Inhibitory Values, Hs683
Description: as §1

[3] = system: OE21 oesophageal cancer cells; assay: MTT colorimetric assay, overall cell growth, OE21; format: cell-based, human; conditions: read-out: In Vitro IC50 Growth Inhibitory Values, OE21
Description: as §1

VM21 melanoma cells = assay: MTT colorimetric assay, overall cell growth, VM21; format: cell-based, human; conditions: MTT, 72 hours of incubation, read-out: In Vitro IC50 Growth Inhibitory Values, VM21
Description: as §1

U373 glioblastoma cells = assay: MTT colorimetric assay, overall cell growth, U373; format: cell-based, human; conditions: 72 hours of incubation, read-out: In Vitro IC50 Growth Inhibitory Values, U373
Description: as §1

[4] = system: A549 non-small-cell-lung cancer cells; assay: MTT colorimetric assay, overall cell growth, A549; format: cell-based, human; conditions: read-out: In Vitro IC50 Growth Inhibitory Values, A549
Description: as §1

T98G glioma cells = assay: MTT colorimetric assay, overall cell growth, T98G; format: cell-based, human; conditions: 72 hours of incubation, read-out: In Vitro IC50 Growth Inhibitory Values, T98G
Description: as §1

[5] = system: MCF-7 breast cancer cells; assay: MTT colorimetric assay, overall cell growth, MCF-7; format: cell-based, human; conditions: read-out: In Vitro IC50 Growth Inhibitory Values, MCF-7
Description: as §1

[6] = system: Eleven human cancer cell lines; assay: MTT colorimetric assay, across the eleven human cancer cell lines; format: cell-based; conditions: mean ± SEM over the 11 human cancer cell lines, MTT, 72 hours; read-out: In Vitro IC50 Growth Inhibitory Values, m ± SEM
Description: as §1

[7] = system: PC-3 prostate cancer cells; assay: MTT colorimetric assay, overall cell growth, PC-3; format: cell-based, human; conditions: 72 hours of incubation, read-out: In Vitro IC50 Growth Inhibitory Values, PC-3
Description: as §1

[8] = Homo sapiens, OE33, 72 hours of incubation
[9] = Mus musculus, B16-F10, 72 hours of incubation
[10] = Homo sapiens, Hs 683, 72 hours of incubation
[11] = Homo sapiens, OE21, 72 hours of incubation
[12] = Homo sapiens, A549, 72 hours of incubation
[13] = Homo sapiens, MCF7, 72 hours of incubation

SMILES | IC50 (VM48 melanoma cells) [µM] | IC50 ([1]; 72 hours of incubation) [µM] | IC50 (LoVo colon cancer cells) [µM] | IC50 ([2]; 72 hours of incubation) [µM] | IC50 (Hs683 glioma cells; 72 hours of incubation) [µM] | IC50 ([3]; 72 hours of incubation) [µM] | IC50 (VM21 melanoma cells) [µM] | IC50 (U373 glioblastoma cells) [µM] | IC50 ([4]; 72 hours of incubation) [µM] | IC50 (T98G glioma cells) [µM] | IC50 ([5]; 72 hours of incubation) [µM] | IC50 [6] [µM] | IC50 [7] [µM] | IC50 (VM48 melanoma cells; Homo sapiens) [µM] | IC50 (VM21 melanoma cells; Homo sapiens) [µM] | also measured
COc1cc(C(=O)O[C@H]2CC[C@H](OC(=O)c3ccc(O)c(OC)c3)C2)ccc1O (stereo in doubt) [DLT18, S,S-trans-cyclopentane-1,3-diyl bis-(4-hydroxy-3-methoxybenzoate)] | 59 | 64 | 41 | 30 | 46 | 53 | > 100 | > 100 | 43 | > 100 | 44 | > 100 | 43 |  |  | 
COc1cc(C(=O)NCCCNC(=O)c2ccc(O)c(OC)c2)ccc1O [DLT36, N,N′-Propane-1,3-diyl bis-(4-hydroxy-3-methoxybenzamide)] | 43 | 36 | 32 | 38 | 31 | 28 | 49 | 38 | 26 | 40 | 25 | 35 ± 2 | 40 |  |  | 
O=C(O[C@H]1CCCC[C@@H]1OC(=O)c1cc(O)c(O)c(O)c1)c1cc(O)c(O)c(O)c1 (stereo in doubt) [DLT33, S,S-trans-cyclohexane 1,2-diyl bis-(3,4,5-trihydroxybenzoate)] | 51 | 66 | 43 | 22 | 32 | 43 | 38 | 35 | 30 | 38 | 58 | 43 | 44 |  |  | 
COc1cc(C(=O)OCc2ccccc2COC(=O)c2ccc(O)c(OC)c2)ccc1O [DLT24, [2-[(4-hydroxy-3-methoxy-benzoyl)oxymethyl]phenyl]methyl 4-hydroxy-3-methoxy-benzoate] |  |  |  |  |  |  |  |  |  |  |  | 53 ± 2 |  | 58 | 48 | 
O=C(OCCOC(=O)c1cc(O)c(O)c(O)c1)c1cc(O)c(O)c(O)c1 [DLT31, Ethane-1,2-diyl bis-(3,4,5-trihydroxybenzoate)] |  |  |  |  |  |  |  |  |  |  |  | 30 ± 3 |  | 35 | 37 | IC50 [1, 8]: 19 µM; IC50 (LoVo colon cancer cells; Homo sapiens, LoVo): 29 µM; IC50 [2, 9]: 41 µM; IC50 (Hs683 glioma cells; [10]): 27 µM; IC50 [3, 11]: 16 µM; IC50 (U373 glioblastoma cells; Homo sapiens, U373 MG): 28 µM; IC50 [4, 12]: 23 µM; IC50 (T98G glioma cells; Homo sapiens, T98G): 28 µM; IC50 [5, 13]: 55 µM; IC50 ([7]; Homo sapiens): 30 µM
COc1cc(C(=O)NCCCCCNC(=O)c2ccc(O)c(OC)c2)ccc1O [DLT37, N,N′-Pentane-1,5-diyl bis-(4-hydroxy-3-methoxybenzamide)] | > 100 | > 100 | 41 | > 100 | 80 | 81 | > 100 | 91 | 52 | 55 | 71 | > 100 | > 100 |  |  | 
COc1cc(C(=O)O[C@@H]2CCC[C@H]2OC(=O)c2ccc(O)c(OC)c2)ccc1O (stereo in doubt) [DLT16, R,R-trans-cyclopentane-1,2-diyl bis-(4-hydroxy-3-methoxybenzoate)] | 29 | 28 | 29 | 4 | 22 | 27 | 26 | 31 | 21 | 32 | 25 | 27 | 25 |  |  | 
O=C(O[C@@H]1CCCC[C@H]1OC(=O)c1cc(O)c(O)c(O)c1)c1cc(O)c(O)c(O)c1 (stereo in doubt) [DLT34, R,R-trans-cyclohexane 1,2-diyl bis-(3,4,5-trihydroxybenzoate)] | 28 | 45 | 34 | 0.3 | 24 | 37 | 91 | 37 | 32 | 31 | 28 | 41 | 68 |  |  | 
COc1cc(C(=O)O[C@H]2CCC[C@H]2OC(=O)c2ccc(O)c(OC)c2)ccc1O [DLT14, cis-cyclopentane-1,2-diyl bis-(4-hydroxy-3-methoxybenzoate)] |  |  |  |  |  |  |  |  |  |  |  | 29 |  | 22 | 33 | IC50 [1, 8]: 28 µM; IC50 (LoVo colon cancer cells; Homo sapiens, LoVo): 24 µM; IC50 [2, 9]: 9 µM; IC50 (Hs683 glioma cells; [10]): 27 µM; IC50 [3, 11]: 28 µM; IC50 (U373 glioblastoma cells; Homo sapiens, U373 MG): 36 µM; IC50 [4, 12]: 24 µM; IC50 (T98G glioma cells; Homo sapiens, T98G): 32 µM; IC50 [5, 13]: 27 µM; IC50 ([7]; Homo sapiens): 36 µM
COc1cc(C(=O)OCC#CCOC(=O)c2ccc(O)c(OC)c2)ccc1O [DLT28, 1,4-oxybut-2-ynyl bis(4-hydroxy-3-methoxybenzoate)] |  |  |  |  |  |  |  |  |  |  |  | 50 ± 4 |  | 60 | 42 | 
COc1cc(C(=O)OCc2cccc(COC(=O)c3ccc(O)c(OC)c3)c2)ccc1O [DLT25, [3-[(4-hydroxy-3-methoxy-benzoyl)oxymethyl]phenyl]methyl 4-hydroxy-3-methoxy-benzoate] |  |  |  |  |  |  |  |  |  |  |  | 52 ± 5 |  | 51 | 81 | 
COc1ccc(C(=O)OCCCCCCOC(=O)c2ccc(OC)c(OC)c2)cc1OC [DLT26, 6-(3,4-dimethoxybenzoyl)oxyhexyl 3,4-dimethoxybenzoate] |  |  |  |  |  |  |  |  |  |  |  | > 100 |  | > 100 | > 100 | 
COc1cc(C(=O)OC/C=C/COC(=O)c2ccc(O)c(OC)c2)ccc1O [DLT27, 1,4-oxybut-2-enyl-bis(4-hydroxy-3-methoxybenzoate)] |  |  |  |  |  |  |  |  |  |  |  | > 100 |  | > 100 | > 100 | IC50 ([7]; Homo sapiens): > 100 µM
COc1ccc(C(=O)OCCCCCCOC(=O)c2ccc(OC)c(O)c2)cc1O [DLT29, 6-(3-hydroxy-4-methoxy-benzoyl)oxyhexyl 3-hydroxy-4-methoxy-benzoate] |  |  |  |  |  |  |  |  |  |  |  | > 100 |  | 82 | 74 | 
